The record followed here is ChEMBL document CHEMBL5463729, “Data for DCP probe BAY 1753011” (2023).

Series [1] has as its target STE20-like serine/threonine-protein kinase (Homo sapiens) (UniProt Q9H2G2). The series can be described thus: Inhibition of SLK(h) at 10.0 µM in the Eurofins Kinase panel. The conditions noted are these: Compound concentration 10.0 uM.
In series [2] the target is Gamma-aminobutyric acid type B receptor subunit 1 (Homo sapiens) (UniProt Q9UBS5). The conditions noted are these: Rattus norvegicus; Compound concentration 10.0 uM.
In series [3] the target is 5-hydroxytryptamine receptor 1D (Homo sapiens) (UniProt P28221). The conditions noted are these: Compound concentration 10.0 uM.
For series [4], the target named is Histamine H2 receptor (Homo sapiens) (UniProt P25021). Particulars: Compound concentration 10.0 uM; call rule not given here.
Series [5] deals with Cannabinoid receptor 2 (Homo sapiens) (UniProt P34972). The conditions noted are these: Compound concentration 10.0 uM.
For series [6], the target named is Tyrosine-protein kinase TXK (Homo sapiens) (UniProt P42681). Description: Inhibition of Txk(h) at 10.0 µM in the Eurofins Kinase panel. The conditions noted are these: Compound concentration 10.0 uM.
Series [7] has as its target Transient receptor potential cation channel subfamily M member 7 (Homo sapiens) (UniProt Q96QT4). Description: Inhibition of ChaK1(h) at 10.0 µM in the Eurofins Kinase panel. Particulars: Compound concentration 10.0 uM.
For series [8], the target named is voltage-gated sodium channel, site 2 (Rattus norvegicus, UniProt F1LQQ7+O08562+O88420+O88457+P04774+P04775+P08104+P15389+P15390+Q62968). The series can be described thus: Inhibition of Sodium Channel, Site 2 at 10 µM in the Eurofins-Panlabs radioligand binding assay (Eurofins_assay_279510). The arrangement: ligand concentration 5 nM, non-specific ligand with concentration 100 µM Veratridine, incubation time 60 min, incubation temperature 37 °C. Type of series: protein assay. Particulars: male, Wistar, rat whole brain (except cerebellum) membranes, probe [3H] Batrachotoxinin, compound concentration 10 uM.

The species named for another series is Homo sapiens. Description: Inhibition of Phosphodiesterase PDE4 at compound concentration of 10.0 uM in the Eurofins-Panlabs enzyme assay (Eurofins_assay_154000). The class given is protein assay. On the set-up: substrate with concentration 1.01 uM [3 H]cAMP + cAMP, incubation time 20 min, incubation temperature 25 C. Particulars: Compound concentration 10.0 uM.

Series [9] addresses 5-hydroxytryptamine receptor 4 (Homo sapiens) (UniProt Q13639). The series can be described thus: Inhibition of Serotonin (5-Hydroxytryptamine) 5-HT4 at 10 µM in the Eurofins-Panlabs radioligand binding assay (Eurofins_assay_272000). Particulars: Cavia porcellus; Compound concentration 10.0 uM.
Series [10] concerns the target Serine/threonine-protein kinase Nek4 (Homo sapiens) (UniProt P51957). Description: Inhibition of NEK4(h) at 10.0 µM in the Eurofins Kinase panel. Particulars: Compound concentration 10.0 uM.
The target of series [11] is Epidermal growth factor receptor (Homo sapiens) (UniProt P00533). Description: Inhibition of Protein Tyrosine Kinase, EGF Receptor at 10 µM in the Eurofins-Panlabs enzyme assay (Eurofins_assay_170020). The arrangement: substrate with concentration. The conditions noted are these: Compound concentration 10.0 uM.
The target in series [12] is Purinergic P2Y (Rattus norvegicus) (UniProt O35811+Q9EPX4+P49651+Q63371+P41232+O35881+Q6GUG4). The conditions noted are these: Compound concentration 10.0 uM.
Series [13] has as its target T1, Muscarinic acetylcholine receptor M5 (Homo sapiens) (UniProt P08912).
T1 sequence (whole entry): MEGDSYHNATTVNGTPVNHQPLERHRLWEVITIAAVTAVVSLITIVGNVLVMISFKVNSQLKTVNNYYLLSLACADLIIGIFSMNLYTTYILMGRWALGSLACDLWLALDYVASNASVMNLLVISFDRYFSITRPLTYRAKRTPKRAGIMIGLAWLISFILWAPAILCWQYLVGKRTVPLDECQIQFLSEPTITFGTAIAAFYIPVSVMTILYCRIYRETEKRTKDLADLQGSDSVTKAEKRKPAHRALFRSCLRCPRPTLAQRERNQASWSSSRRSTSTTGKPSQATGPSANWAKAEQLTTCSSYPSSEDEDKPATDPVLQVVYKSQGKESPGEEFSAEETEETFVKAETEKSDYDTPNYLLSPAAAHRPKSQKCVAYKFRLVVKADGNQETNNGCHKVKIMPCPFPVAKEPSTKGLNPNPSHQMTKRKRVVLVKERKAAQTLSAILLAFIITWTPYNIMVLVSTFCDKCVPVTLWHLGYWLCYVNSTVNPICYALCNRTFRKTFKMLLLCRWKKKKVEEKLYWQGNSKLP
Description: Inhibition of Muscarinic M5 at 10 µM in the Eurofins-Panlabs radioligand binding assay (Eurofins_assay_253010). On the set-up: ligand concentration 0.8 nM. The conditions noted are these: Compound concentration 10.0 uM.

For another series, the target named is T2, Oxytocin receptor (Homo sapiens, UniProt P30559).
T2 sequence (P30559 whole entry): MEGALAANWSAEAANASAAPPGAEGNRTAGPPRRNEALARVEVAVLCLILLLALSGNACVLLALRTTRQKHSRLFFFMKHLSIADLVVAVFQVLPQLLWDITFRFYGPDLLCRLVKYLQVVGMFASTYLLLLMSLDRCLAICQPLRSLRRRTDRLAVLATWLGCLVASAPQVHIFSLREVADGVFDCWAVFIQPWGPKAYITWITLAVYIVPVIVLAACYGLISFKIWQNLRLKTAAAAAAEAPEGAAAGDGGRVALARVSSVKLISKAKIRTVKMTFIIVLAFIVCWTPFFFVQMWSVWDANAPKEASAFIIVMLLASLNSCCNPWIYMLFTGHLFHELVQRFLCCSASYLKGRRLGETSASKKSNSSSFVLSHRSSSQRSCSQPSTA
The series can be described thus: Inhibition of Oxytocin at 1 µM in the Eurofins-Panlabs radioligand binding assay (Eurofins_assay_260900). The arrangement: ligand concentration 0.8 nM, non-specific ligand with concentration 1 µM Oxytocin, incubation time 2 h, incubation temperature 25°C.

In series [14] the target is Progesterone receptor (Homo sapiens) (UniProt P06401). Description: Inhibition of Progesterone PR-B at 10 µM in the Eurofins-Panlabs radioligand binding assay (Eurofins_assay_268020). On the set-up: ligand concentration 1.4 nM. The conditions noted are these: Compound concentration 10.0 uM.
In series [15] the target is cGMP-specific 3',5'-cyclic phosphodiesterase (Homo sapiens) (UniProt O76074). The conditions noted are these: Compound concentration 10.0 uM.
The target in the next series is Vasopressin V1a receptor (Homo sapiens, UniProt P37288). The series can be described thus: Inhibition of Vasopressin V1A at compound concentration of 10.0 uM in the Eurofins-Panlabs radioligand binding assay (Eurofins_assay_287530). The arrangement: ligand concentration 0.03 nM, non-specific ligand with concentration 1 uM (Arg8)-Vasopressin, incubation time 2 h, incubation temperature 25 C.

Series [16] concerns the target Calcitonin receptor (Homo sapiens) (UniProt P30988). The series can be described thus: Inhibition of Calcitonin at 10 µM in the Eurofins-Panlabs radioligand binding assay (Eurofins_assay_213610). The conditions noted are these: Compound concentration 10.0 uM.
The target of series [17] is T3, Muscarinic acetylcholine receptor M1 (Homo sapiens) (UniProt P11229).
T3 sequence (whole entry): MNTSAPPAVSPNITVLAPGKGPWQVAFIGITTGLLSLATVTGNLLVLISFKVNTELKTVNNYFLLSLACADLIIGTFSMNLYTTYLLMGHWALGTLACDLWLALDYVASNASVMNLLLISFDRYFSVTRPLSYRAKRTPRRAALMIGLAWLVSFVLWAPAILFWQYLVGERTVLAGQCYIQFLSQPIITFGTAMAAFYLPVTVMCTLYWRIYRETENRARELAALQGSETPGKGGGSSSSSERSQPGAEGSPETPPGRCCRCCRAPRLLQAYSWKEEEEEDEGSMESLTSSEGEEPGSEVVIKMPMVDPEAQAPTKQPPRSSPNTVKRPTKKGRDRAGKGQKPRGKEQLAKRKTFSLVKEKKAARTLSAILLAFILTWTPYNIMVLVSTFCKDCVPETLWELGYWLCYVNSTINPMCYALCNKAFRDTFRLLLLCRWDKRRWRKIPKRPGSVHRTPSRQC
The conditions noted are these: Compound concentration 10.0 uM.

The term inhibition denotes the change of the read-out against control, counted positive when it falls. For orientation: IC50 means the concentration that gives 50% inhibition. A lower IC50 goes with higher potency. Usually Ki stands for the dissociation constant of the complex between target and ligand, obtained from inhibition or displacement. High values mean a looser hold on the target, low ones a stronger hold on the target.

Chain of Histamine H2 receptor (Homo sapiens) (P25021 whole entry): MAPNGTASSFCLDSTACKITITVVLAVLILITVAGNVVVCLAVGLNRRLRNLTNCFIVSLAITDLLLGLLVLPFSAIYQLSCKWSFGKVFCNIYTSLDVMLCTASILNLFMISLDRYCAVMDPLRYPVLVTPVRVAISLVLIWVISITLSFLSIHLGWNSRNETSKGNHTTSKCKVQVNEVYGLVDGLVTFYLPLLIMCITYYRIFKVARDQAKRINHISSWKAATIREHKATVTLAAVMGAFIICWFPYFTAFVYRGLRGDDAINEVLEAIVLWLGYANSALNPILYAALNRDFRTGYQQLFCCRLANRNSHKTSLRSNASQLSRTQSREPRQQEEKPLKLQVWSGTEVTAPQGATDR
Chain of 5-hydroxytryptamine receptor 1D (Homo sapiens) (P28221 whole entry): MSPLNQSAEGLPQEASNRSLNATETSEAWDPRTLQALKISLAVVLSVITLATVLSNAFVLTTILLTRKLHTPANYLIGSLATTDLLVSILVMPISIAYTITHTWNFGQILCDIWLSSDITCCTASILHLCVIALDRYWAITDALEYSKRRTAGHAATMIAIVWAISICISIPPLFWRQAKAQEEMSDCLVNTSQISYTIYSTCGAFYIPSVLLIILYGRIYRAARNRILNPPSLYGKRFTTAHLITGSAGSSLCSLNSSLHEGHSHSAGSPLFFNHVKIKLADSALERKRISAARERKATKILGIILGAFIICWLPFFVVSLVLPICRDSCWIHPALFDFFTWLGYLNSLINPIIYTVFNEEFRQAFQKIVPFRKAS
Chain of Vasopressin V1a receptor (P37288 whole entry): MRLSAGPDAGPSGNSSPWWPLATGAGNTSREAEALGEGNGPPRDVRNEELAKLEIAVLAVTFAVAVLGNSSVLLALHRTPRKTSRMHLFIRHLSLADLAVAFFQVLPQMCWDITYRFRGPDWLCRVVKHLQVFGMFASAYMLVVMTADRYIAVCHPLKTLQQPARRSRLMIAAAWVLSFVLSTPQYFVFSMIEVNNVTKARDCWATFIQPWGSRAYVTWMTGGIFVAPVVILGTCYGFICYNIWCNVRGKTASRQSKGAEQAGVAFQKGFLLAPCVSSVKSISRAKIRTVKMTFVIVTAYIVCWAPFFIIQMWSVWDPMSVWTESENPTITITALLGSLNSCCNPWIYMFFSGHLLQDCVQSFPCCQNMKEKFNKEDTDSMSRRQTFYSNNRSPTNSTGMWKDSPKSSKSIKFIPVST
Chain of Serine/threonine-protein kinase Nek4 (Homo sapiens) (P51957 whole entry, looked up): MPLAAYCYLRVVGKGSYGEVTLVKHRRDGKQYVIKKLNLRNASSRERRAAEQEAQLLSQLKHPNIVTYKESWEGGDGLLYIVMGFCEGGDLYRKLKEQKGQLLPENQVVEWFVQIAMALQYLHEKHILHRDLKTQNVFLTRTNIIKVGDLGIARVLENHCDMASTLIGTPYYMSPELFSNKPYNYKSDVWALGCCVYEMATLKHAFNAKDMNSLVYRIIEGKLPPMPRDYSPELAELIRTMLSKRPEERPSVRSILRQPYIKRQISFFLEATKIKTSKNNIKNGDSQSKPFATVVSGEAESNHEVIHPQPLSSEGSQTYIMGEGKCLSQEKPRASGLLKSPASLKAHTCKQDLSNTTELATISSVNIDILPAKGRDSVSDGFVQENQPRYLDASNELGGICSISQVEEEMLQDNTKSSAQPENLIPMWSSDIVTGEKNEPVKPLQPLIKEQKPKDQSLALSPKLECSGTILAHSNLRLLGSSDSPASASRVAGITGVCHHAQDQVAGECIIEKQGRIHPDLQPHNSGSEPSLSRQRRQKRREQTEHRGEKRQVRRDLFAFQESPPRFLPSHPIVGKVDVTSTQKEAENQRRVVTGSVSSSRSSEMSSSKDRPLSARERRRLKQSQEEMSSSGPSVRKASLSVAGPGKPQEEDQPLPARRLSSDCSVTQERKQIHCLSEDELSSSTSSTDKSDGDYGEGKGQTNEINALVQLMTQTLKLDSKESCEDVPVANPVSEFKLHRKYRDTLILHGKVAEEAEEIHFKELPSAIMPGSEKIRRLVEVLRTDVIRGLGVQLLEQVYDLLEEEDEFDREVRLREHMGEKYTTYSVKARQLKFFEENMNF
Chain of Gamma-aminobutyric acid type B receptor subunit 1 (Homo sapiens) (Q9UBS5 whole entry): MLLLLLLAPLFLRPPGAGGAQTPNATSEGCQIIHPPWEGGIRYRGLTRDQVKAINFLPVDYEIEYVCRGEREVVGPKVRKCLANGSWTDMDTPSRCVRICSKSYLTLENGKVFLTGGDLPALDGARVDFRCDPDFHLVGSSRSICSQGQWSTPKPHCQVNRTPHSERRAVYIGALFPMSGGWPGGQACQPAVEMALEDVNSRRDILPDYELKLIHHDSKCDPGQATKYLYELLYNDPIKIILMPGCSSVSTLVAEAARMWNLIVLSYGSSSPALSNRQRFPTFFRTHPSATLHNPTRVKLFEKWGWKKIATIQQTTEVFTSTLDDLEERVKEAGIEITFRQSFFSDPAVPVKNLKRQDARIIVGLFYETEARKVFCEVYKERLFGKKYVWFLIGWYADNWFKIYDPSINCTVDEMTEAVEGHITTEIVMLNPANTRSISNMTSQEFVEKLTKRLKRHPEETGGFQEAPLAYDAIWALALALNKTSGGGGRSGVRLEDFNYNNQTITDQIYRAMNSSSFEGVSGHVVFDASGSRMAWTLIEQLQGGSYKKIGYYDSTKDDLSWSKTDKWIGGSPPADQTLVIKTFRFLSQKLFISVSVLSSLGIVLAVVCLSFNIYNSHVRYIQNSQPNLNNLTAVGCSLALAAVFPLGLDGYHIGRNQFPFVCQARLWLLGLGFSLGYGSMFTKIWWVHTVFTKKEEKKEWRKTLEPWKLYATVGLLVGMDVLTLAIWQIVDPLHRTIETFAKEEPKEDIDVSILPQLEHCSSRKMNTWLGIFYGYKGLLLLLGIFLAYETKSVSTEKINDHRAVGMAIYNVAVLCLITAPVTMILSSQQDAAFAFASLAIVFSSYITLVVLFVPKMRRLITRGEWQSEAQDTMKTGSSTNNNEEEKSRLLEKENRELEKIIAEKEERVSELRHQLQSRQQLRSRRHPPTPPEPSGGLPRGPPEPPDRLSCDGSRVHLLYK
Chain of STE20-like serine/threonine-protein kinase (Homo sapiens) (Q9H2G2 whole entry, looked up): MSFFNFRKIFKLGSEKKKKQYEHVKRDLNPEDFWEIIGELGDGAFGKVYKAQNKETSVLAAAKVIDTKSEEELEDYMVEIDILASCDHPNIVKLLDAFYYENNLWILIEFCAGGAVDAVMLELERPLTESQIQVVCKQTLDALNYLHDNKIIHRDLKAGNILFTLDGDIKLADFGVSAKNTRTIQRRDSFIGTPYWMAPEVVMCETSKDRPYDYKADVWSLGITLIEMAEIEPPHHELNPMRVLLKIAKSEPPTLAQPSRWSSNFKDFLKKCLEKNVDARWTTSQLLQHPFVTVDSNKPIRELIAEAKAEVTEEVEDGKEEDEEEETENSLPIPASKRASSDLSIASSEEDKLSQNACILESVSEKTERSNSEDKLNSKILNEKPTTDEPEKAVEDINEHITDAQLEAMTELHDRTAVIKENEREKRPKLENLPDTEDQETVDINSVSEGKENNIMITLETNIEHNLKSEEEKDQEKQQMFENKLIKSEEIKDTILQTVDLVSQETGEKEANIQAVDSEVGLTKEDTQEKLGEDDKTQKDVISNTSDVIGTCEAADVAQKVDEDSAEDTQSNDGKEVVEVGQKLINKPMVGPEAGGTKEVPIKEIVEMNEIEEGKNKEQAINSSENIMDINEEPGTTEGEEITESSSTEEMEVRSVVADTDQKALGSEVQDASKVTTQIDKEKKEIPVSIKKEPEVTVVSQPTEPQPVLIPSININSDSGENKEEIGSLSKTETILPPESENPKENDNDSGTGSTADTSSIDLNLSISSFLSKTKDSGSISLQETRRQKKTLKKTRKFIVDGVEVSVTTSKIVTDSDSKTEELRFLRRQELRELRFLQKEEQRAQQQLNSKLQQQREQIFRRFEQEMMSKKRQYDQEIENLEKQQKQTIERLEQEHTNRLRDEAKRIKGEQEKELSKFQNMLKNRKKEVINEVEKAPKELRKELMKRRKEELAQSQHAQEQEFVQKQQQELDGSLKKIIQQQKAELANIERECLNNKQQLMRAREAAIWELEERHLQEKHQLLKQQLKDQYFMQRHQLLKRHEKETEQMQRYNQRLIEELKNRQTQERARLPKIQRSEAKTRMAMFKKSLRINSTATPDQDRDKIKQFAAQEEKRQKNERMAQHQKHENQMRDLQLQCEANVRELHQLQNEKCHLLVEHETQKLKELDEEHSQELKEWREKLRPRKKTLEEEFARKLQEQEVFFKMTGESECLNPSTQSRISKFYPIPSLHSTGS
Chain of Calcitonin receptor (Homo sapiens) (P30988 whole entry): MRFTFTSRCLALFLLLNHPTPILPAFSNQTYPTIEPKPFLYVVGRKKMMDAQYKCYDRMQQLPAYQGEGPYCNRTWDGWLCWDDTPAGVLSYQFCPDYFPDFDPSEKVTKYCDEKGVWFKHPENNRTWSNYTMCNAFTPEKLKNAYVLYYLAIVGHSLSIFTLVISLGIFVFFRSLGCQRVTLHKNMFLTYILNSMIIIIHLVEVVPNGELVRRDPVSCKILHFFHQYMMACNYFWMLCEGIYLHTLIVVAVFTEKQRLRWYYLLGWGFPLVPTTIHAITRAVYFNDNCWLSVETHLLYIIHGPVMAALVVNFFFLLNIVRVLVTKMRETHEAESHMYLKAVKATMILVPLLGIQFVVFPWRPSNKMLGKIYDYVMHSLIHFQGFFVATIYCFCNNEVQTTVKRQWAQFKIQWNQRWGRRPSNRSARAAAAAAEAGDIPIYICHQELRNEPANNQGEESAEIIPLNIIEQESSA
Chain of Cannabinoid receptor 2 (Homo sapiens) (P34972 whole entry): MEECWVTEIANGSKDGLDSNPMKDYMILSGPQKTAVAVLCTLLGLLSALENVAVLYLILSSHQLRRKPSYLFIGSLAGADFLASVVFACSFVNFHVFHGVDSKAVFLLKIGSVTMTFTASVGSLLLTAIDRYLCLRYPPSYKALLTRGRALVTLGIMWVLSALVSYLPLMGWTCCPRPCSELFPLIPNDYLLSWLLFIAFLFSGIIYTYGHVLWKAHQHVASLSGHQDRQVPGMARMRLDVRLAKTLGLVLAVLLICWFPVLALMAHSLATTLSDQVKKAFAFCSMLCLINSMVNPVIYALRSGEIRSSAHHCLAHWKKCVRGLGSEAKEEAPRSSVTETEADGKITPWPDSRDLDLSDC

Regarding `O=c1n(Cc2cncn2-c2cccc(Cl)c2)nc(-c2ccc(Cl)cc2)n1C[C@H](O)C(F)(F)F`, the inhibition in [1] is 0.22%; in [2], 8%; in series [3], 10.1%; in series [4], 20%; in series [5], 14%; in [6], -5.05%. Besides, the inhibition in series [7] is -0.03%.

`C[C@H](O)c1nc(Cn2nc(-c3ccc(Cl)cc3)n(C[C@H](O)C(F)(F)F)c2=O)nn1-c1cccc(Cl)c1` [PECAVAPTAN]: the inhibition at 60 min, 10 µM in [8] is 42% (not active). The inhibition in the series listed under Homo sapiens was -4%; in series [9], 19%; in series [10], 13.1%; in [11], -6%; in [12], 0%; in series [13] it was 6%. Besides, the inhibition in series [14] was 0%; in series [15] it was -10%; in series [16], -7%; in series [17], 4.34%. Also, the IC50 was determined as 15.5 nM at Oxytocin receptor and 6.74 nM at Vasopressin V1a receptor. Moreover, the Ki on Oxytocin receptor stood at 5.06 nM; on Vasopressin V1a receptor, 1.33 nM.
